Reference: PubChem BioAssay (NCI)
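Where inhibition never reached the appropriate level, the endpoint shown equals the highest concentration tested. Otherwise, values were interpolated linearly from a five-concentration, 48-hour dose response in 96-well plates. GI50 marks 50% less growth. TGI is the concentration that stops growth completely.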

Tests used:
Test in all cases: NCI tumour cell line growth inhibition, 48 h; in the data active means GI50 below about 0.43 µM; inactive means the rest
786-0 renal = tested on: 786-0 renal
A498 renal = tested on: A498 renal
A549 NSCLC = tested on: A549 NSCLC
ACHN renal = tested on: ACHN renal
BT-549 breast = tested on: BT-549 breast
CAKI-1 renal = tested on: CAKI-1 renal
CCRF-CEM leukemia = tested on: CCRF-CEM leukemia
COLO 205 colon = tested on: COLO 205 colon
DU-145 prostate = tested on: DU-145 prostate
EKVX NSCLC = tested on: EKVX NSCLC
HCC-2998 colon = tested on: HCC-2998 colon
HCT-116 colon = tested on: HCT-116 colon
HCT-15 colon = tested on: HCT-15 colon
HL-60(TB) leukemia = tested on: HL-60(TB) leukemia
HOP-62 NSCLC = tested on: HOP-62 NSCLC
HOP-92 NSCLC = tested on: HOP-92 NSCLC
HS 578T breast = tested on: HS 578T breast
HT29 colon = tested on: HT29 colon
IGROV1 ovarian = tested on: IGROV1 ovarian
K-562 leukemia = tested on: K-562 leukemia
KM12 colon = tested on: KM12 colon
M14 melanoma = tested on: M14 melanoma
MALME-3M melanoma = tested on: MALME-3M melanoma
MCF7 breast = tested on: MCF7 breast
MDA-MB-231 breast = tested on: MDA-MB-231 breast
MDA-MB-435 = tested on: MDA-MB-435
MOLT-4 leukemia = tested on: MOLT-4 leukemia
NCI-H226 lung = tested on: NCI-H226 lung
NCI-H23 lung = tested on: NCI-H23 lung
NCI-H460 lung = tested on: NCI-H460 lung
NCI-H522 lung = tested on: NCI-H522 lung
NCI/ADR-RES ovarian = tested on: NCI/ADR-RES ovarian
OVCAR-3 ovarian = tested on: OVCAR-3 ovarian
OVCAR-4 ovarian = tested on: OVCAR-4 ovarian
OVCAR-5 ovarian = tested on: OVCAR-5 ovarian
OVCAR-8 ovarian = tested on: OVCAR-8 ovarian
PC-3 prostate = tested on: PC-3 prostate
RPMI-8226 leukemia = tested on: RPMI-8226 leukemia
RXF 393 renal = tested on: RXF 393 renal
SF-268 CNS = tested on: SF-268 CNS
SF-295 CNS = tested on: SF-295 CNS
SF-539 CNS = tested on: SF-539 CNS
SK-MEL-2 melanoma = tested on: SK-MEL-2 melanoma
SK-MEL-28 melanoma = tested on: SK-MEL-28 melanoma
SK-MEL-5 melanoma = tested on: SK-MEL-5 melanoma
SK-OV-3 ovarian = tested on: SK-OV-3 ovarian
SN12C renal = tested on: SN12C renal
SNB-19 CNS = tested on: SNB-19 CNS
SNB-75 CNS = tested on: SNB-75 CNS
SR leukemia = tested on: SR leukemia
SW-620 colon = tested on: SW-620 colon
T-47D breast = tested on: T-47D breast
TK-10 renal = tested on: TK-10 renal
U251 CNS = tested on: U251 CNS
UACC-257 melanoma = tested on: UACC-257 melanoma
UACC-62 melanoma = tested on: UACC-62 melanoma
UO-31 renal = tested on: UO-31 renal

COC(=O)[C@@H](NC(=O)[C@@H](OC)[C@@H]1Cc2cc3cc(OC4CC(OC5CC(O)C(O)C(C)O5)C(O)C(C)O4)c(C)c(O)c3c(O)c2C(=O)[C@H]1OC1CC(OC2CC(OC3CC(C)(O)C(O)C(C)O3)C(O)C(C)O2)C(O)C(C)O1)C(C)C (some centres undefined)
13500 nM: TGI (NCI-H23 lung)
1130 nM: TGI (HOP-92 NSCLC)
333 nM: TGI (A498 renal)
1460 nM: TGI (SNB-75 CNS)
963 nM: TGI (NCI-H226 lung)
14000 nM: TGI (OVCAR-4 ovarian)
619 nM: TGI (RPMI-8226 leukemia)
6040 nM: TGI (SK-MEL-28 melanoma)
1390 nM: TGI (HS 578T breast)
4400 nM: TGI (UO-31 renal)
1670 nM: TGI (CAKI-1 renal)
1600 nM: TGI (U251 CNS)
8910 nM: TGI (UACC-257 melanoma)
19900 nM: TGI (MDA-MB-231 breast)
inactive: GI50 (NCI/ADR-RES ovarian) 23700 nM
2630 nM: TGI (BT-549 breast)
427 nM: TGI (RXF 393 renal)
2110 nM: TGI (SF-295 CNS)
5080 nM: TGI (SR leukemia)
408 nM: TGI (SK-MEL-5 melanoma)
3700 nM: TGI (ACHN renal)
5240 nM: TGI (MOLT-4 leukemia)
active: GI50 (786-0 renal) 175 nM | GI50 (A498 renal) 86.9 nM | GI50 (A549 NSCLC) 141 nM | GI50 (ACHN renal) 95.6 nM | GI50 (BT-549 breast) 184 nM | GI50 (CAKI-1 renal) 107 nM | GI50 (CCRF-CEM leukemia) 122 nM | GI50 (COLO 205 colon) 137 nM | GI50 (DU-145 prostate) 158 nM | GI50 (EKVX NSCLC) 162 nM | GI50 (HCC-2998 colon) 206 nM | GI50 (HCT-116 colon) 93.4 nM | GI50 (HCT-15 colon) 181 nM | GI50 (HL-60(TB) leukemia) 348 nM | GI50 (HOP-62 NSCLC) 82.4 nM | GI50 (HOP-92 NSCLC) 101 nM | GI50 (HS 578T breast) 114 nM | GI50 (HT29 colon) 129 nM | GI50 (IGROV1 ovarian) 101 nM | GI50 (K-562 leukemia) 139 nM | GI50 (KM12 colon) 154 nM | GI50 (M14 melanoma) 147 nM | GI50 (MALME-3M melanoma) 76.3 nM | GI50 (MCF7 breast) 53.8 nM | GI50 (MDA-MB-231 breast) 192 nM | GI50 (MDA-MB-435) 130 nM | GI50 (MOLT-4 leukemia) 136 nM | GI50 (NCI-H226 lung) 109 nM | GI50 (NCI-H23 lung) 144 nM | GI50 (NCI-H460 lung) 111 nM | GI50 (NCI-H522 lung) 112 nM | GI50 (OVCAR-3 ovarian) 165 nM | GI50 (OVCAR-4 ovarian) 166 nM | GI50 (OVCAR-5 ovarian) 265 nM | GI50 (OVCAR-8 ovarian) 150 nM | GI50 (PC-3 prostate) 149 nM | GI50 (RPMI-8226 leukemia) 91.8 nM | GI50 (RXF 393 renal) 82.2 nM | GI50 (SF-268 CNS) 172 nM | GI50 (SF-295 CNS) 93.4 nM | GI50 (SF-539 CNS) 127 nM | GI50 (SK-MEL-2 melanoma) 194 nM | GI50 (SK-MEL-28 melanoma) 97.1 nM | GI50 (SK-MEL-5 melanoma) 72.7 nM | GI50 (SK-OV-3 ovarian) 271 nM | GI50 (SN12C renal) 145 nM | GI50 (SNB-19 CNS) 157 nM | GI50 (SNB-75 CNS) 84.9 nM | GI50 (SR leukemia) 17.4 nM | GI50 (SW-620 colon) 121 nM | GI50 (T-47D breast) 202 nM | GI50 (TK-10 renal) 208 nM | GI50 (U251 CNS) 106 nM | GI50 (UACC-257 melanoma) 128 nM | GI50 (UACC-62 melanoma) 73.1 nM | GI50 (UO-31 renal) 129 nM
10800 nM: TGI (OVCAR-5 ovarian)
5700 nM: TGI (NCI-H460 lung)
5980 nM: TGI (786-0 renal)
847 nM: TGI (SF-539 CNS)
1430 nM: TGI (MALME-3M melanoma)
2020 nM: TGI (NCI-H522 lung)
> 32500 nM: TGI (A549 NSCLC) | TGI (CCRF-CEM leukemia) | TGI (COLO 205 colon) | TGI (DU-145 prostate) | TGI (EKVX NSCLC) | TGI (HCC-2998 colon) | TGI (HCT-116 colon) | TGI (HCT-15 colon) | TGI (HL-60(TB) leukemia) | TGI (HOP-62 NSCLC) | TGI (HT29 colon) | TGI (IGROV1 ovarian) | TGI (K-562 leukemia) | TGI (KM12 colon) | TGI (M14 melanoma) | TGI (MCF7 breast) | TGI (MDA-MB-435) | TGI (NCI/ADR-RES ovarian) | TGI (OVCAR-3 ovarian) | TGI (OVCAR-8 ovarian) | TGI (PC-3 prostate) | TGI (SF-268 CNS) | TGI (SK-OV-3 ovarian) | TGI (SN12C renal) | TGI (SNB-19 CNS) | TGI (SW-620 colon) | TGI (T-47D breast) | TGI (TK-10 renal)
409 nM: TGI (UACC-62 melanoma)
7940 nM: TGI (SK-MEL-2 melanoma)
